Laboratory results taken from patent publication US20240058332A1, “CRAC CHANNEL INHIBITOR COMPOSITIONS” (CalciMedica, Inc., priority 2017, published 2024).
In brackets after ≈: the same amount, converted by molar mass.

How the values were obtained:
Type in all cases: physicochemical
[1] = Solubility of Compound A in F57, Method 4: bottom-up method; details: for concentration in F57 vehicle: Method 4 bottom-up
[2] = DVS isotherm (hygroscopicity) of Form A
Text: The crystal size of Form A is in the range of ˜few μm to about 50 μm.

[3] = Solubility of Compound A in F57, summary of all 7 methods; details: F57 emulsion, 2 °C, thermodynamic from solid, 2-8° C., all methods; read-out: solubility in F57
Text: The term “solubility” used herein is defined as Compound A concentration where Compound A has reached a dissolution-precipitation equilibrium in F57 at a selected temperature. […] On the other hand, if Compound A concentration is higher than the solubility, Compound A is expected to precipitate over time.
To investigate the causes of precipitation and determine the Compound A solubility in F57 vehicle, the following seven (7) methods were applied to accurately determine solubility of Compound A in F57: • Method 1: Formulate Compound A in F57 at varied concentrations using GMP grade of Compound A and excipients with the regular process • Method 2: Formulate Compound A in F57 by introducing Compound A into a pre-formed F57 vehicle • Method 3: Observe Compound A in the previously made batches which already had extended incubation • Method 4: Conduct “top-down” and a “bottom-up” solubility studies in F57 vehicle • Method 5: Agitate Compound A GMP batch of F57 to promote the dissolution-precipitation equilibrium • Method 6: Add extra Form B seeds to Compound A GMP batch of F57 to promote Compound A crystal growth and precipitation • Method 7: Add Form B seeds to the samples made in method 1 to promote Compound A crystal growth and precipitation
(§1) For solubility determination, a F57 sample (usually about 0.5 mL) was filtered through a 0.22 μm centrifuge filter (Costar Spin-X®+, P/N8169), the filtrate (free of any solid particle) was collected, diluted with isopropanol, and tested for Compound A concentration using the following HPLC method. Dissolution-precipitation equilibrium is reached once the measured filtrate concentration is constant, and that concentration can be regarded as the solubility.
Table 40 summarizes the general conditions used in the seven methods to promote the dissolution-precipitation equilibrium. Detailed procedures are described in each method section.
The general observation and findings by all 7 methods are summarized in the table 50, according to the detailed observation and discussion pertaining to each method.

[4] = Solubility of Compound A in F57, Method 4: bottom-up method; details: 2-8° C.; for concentration in F57 vehicle: Method 4 bottom-up
Description: as §1
(§2) The bottom-up method used a gentle mixing to slowly dissolve Compound A (Form A) in the F57 vehicle to reach the dissolution-precipitation equilibrium in F57. The solubility of Compound A in the F57 vehicle was then determined. • Top-down method: Add form A and B API, each into a separate tube containing the F57 vehicle, then apply extensive energy to each tube by homogenizer (BB, 600 sec) to obtain a clear solution, and store each tube at 2-8° C. • Bottom-up method: Add form A and B API, each into a separate tube containing the F57 vehicle, then gently shake each tube on a platform shaker at 2-8° C. • Pull sample aliquots at 1 day, 2 days, 1 week and 4 weeks to test for appearance and concentration.

[5] = Solubility of Compound A in F57, Method 4: top-down method; details: for concentration in F57 vehicle: Method 4 top-down, 2-8° C.; for strength dissolved into F57 vehicle: top-down approach; for concentration on storage: top-down, after 4 weeks' storage at 2-8° C.
Description: as §1
The top-down method used high-energy homogenization to dissolve a set amount of Compound A (Form A) in the F57 vehicle to achieve supersaturation, allowing precipitation to take place over time to reach a dissolution-precipitation equilibrium in F57. The solubility of Compound A in the F57 vehicle was then determined.
as §2

[6] = Solubility estimation of freebase Form A in 20 solvents at RT
Description: The solubility of N-(5-(6-chloro-2,2-difluorobenzo[d][1,3]dioxol-5-yl)pyrazin-2-yl)-2-fluoro-6-methylbenzamide freebase Form A was determined in 20 solvents at RT. These experiments were conducted by adding approximately 2 mg of sample into a 3-mL glass vial. Solvents in Table 14 were then added in 50 μL increments into the vials until the solids were dissolved or a total volume of 2 mL was reached. The solubility estimation was used to guide the solvent selection in polymorph screening. N-(5-(6-chloro-2,2-difluorobenzo[d][1,3]dioxol-5-yl)pyrazin-2-yl)-2-fluoro-6-methylbenzamide freebase Form A is soluble in MeOH, Acetic acid, Acetonitrile, Acetone, MIBK, EtOAc, IPAc, MTBE, THF, 2-MeTHF, 1,4-Dioxane, NMP, DMSO, DCM, Toluene and DMAc (>18.0 mg/mL), while it is insoluble in Heptane and H2O (<1.3 mg/mL).

With `Cc1cccc(F)c1C(=O)Nc1cnc(-c2cc3c(cc2Cl)OC(F)(F)O3)cn1` [Form A, N-(5-(6-chloro-2,2-difluorobenzo[d][1,3]dioxol-5-yl)pyrazin-2-yl)-2-fluoro-6-methylbenzamide] the solubility at 7 weeks ([1]; F57 emulsion vehicle, thermodynamic from solid, bottom-up, F57 vehicle, 2-8° C., in 7 weeks) was 1800 µg/mL (≈ 4.27 mM), the “concentration in F57 vehicle” value ([1]; 2-8° C., 7 wk) was 1.85 mg/mL and the “concentration in F57 vehicle” value ([1]; 25° C., 1 wk) was 2.19 mg/mL. For the same compound, the “concentration in F57 vehicle” value ([1]; 25° C., 4 wk) was 2.17 mg/mL, the “concentration in F57 vehicle” value ([1]; 25° C., 1 day) was 2.18 mg/mL and the “concentration in F57 vehicle” value ([1]; 25° C., 2 day) was 2.24 mg/mL. For the same compound, the hygroscopicity ([2]; DVS isotherm plot) was “not hygroscopic”, the water uptake level ([2]; DVS isotherm, at 80% RH) was under 0.03% and the solubility [3] was 1800 to 1900 µg/mL (≈ 4.27 to 4.5 mM). The “concentration in F57 vehicle” value ([4]; 1 wk) was 1.70 mg/mL, the “concentration in F57 vehicle” value ([4]; 4 wk) was 1.71 mg/mL and the “concentration in F57 vehicle” value ([4]; 1 day) was 1.20 mg/mL. For the same compound, the “concentration in F57 vehicle” value ([4]; 2 day) was 1.53 mg/mL, the dissolution rate ([4]; bottom-up, emulsion vehicle) was “faster dissolution rate” and the “concentration in F57 vehicle” value ([5]; 1 wk) was 2.68 mg/mL. For the same compound, the “concentration in F57 vehicle” value ([5]; 4 wk) was 2.64 mg/mL, the “concentration in F57 vehicle” value ([5]; 1 day) was 2.69 mg/mL and the “concentration in F57 vehicle” value ([5]; 2 day) was 2.65 mg/mL. The “strength dissolved into F57 vehicle” value [5] was 2.69 mg/mL, the concentration on storage [5] was “remained the same” and the solubility ([6]; organic solvent or mixture, thermodynamic from solid, 1,4-Dioxane, read-out: Solubility) was over 24 mg/mL. The solubility ([6]; organic solvent or mixture, thermodynamic from solid, 2-MeTHF, read-out: Solubility) was over 26 mg/mL, the solubility ([6]; organic solvent or mixture, thermodynamic from solid, Acetic acid, read-out: Solubility) was over 22 mg/mL and the solubility ([6]; organic solvent or mixture, thermodynamic from solid, Acetone, read-out: Solubility) was over 22 mg/mL. The solubility ([6]; organic solvent or mixture, thermodynamic from solid, Acetonitrile, read-out: Solubility) was over 22 mg/mL, the solubility ([6]; organic solvent or mixture, thermodynamic from solid, DCM, read-out: Solubility) was over 22 mg/mL and the solubility ([6]; organic solvent or mixture, thermodynamic from solid, DMAc, read-out: Solubility) was over 22 mg/mL. The solubility ([6]; organic solvent or mixture, thermodynamic from solid, DMSO, read-out: Solubility) was over 20 mg/mL, the solubility ([6]; organic solvent or mixture, thermodynamic from solid, EtOAc, read-out: Solubility) was over 22 mg/mL and the solubility ([6]; organic solvent or mixture, thermodynamic from solid, Heptane, read-out: Solubility) was under 1.3 mg/mL. It also gave a solubility ([6]; organic solvent or mixture, thermodynamic from solid, IPAc, read-out: Solubility) of over 24 mg/mL, a solubility ([6]; organic solvent or mixture, thermodynamic from solid, MIBK, read-out: Solubility) of over 22 mg/mL and a solubility ([6]; organic solvent or mixture, thermodynamic from solid, MTBE, read-out: Solubility) of over 18 mg/mL. The solubility ([6]; organic solvent or mixture, thermodynamic from solid, MeOH, read-out: Solubility) was over 18 mg/mL, the solubility ([6]; organic solvent or mixture, thermodynamic from solid, NMP, read-out: Solubility) was over 26 mg/mL and the solubility ([6]; organic solvent or mixture, thermodynamic from solid, THF, read-out: Solubility) was over 20 mg/mL. The solubility ([6]; organic solvent or mixture, thermodynamic from solid, Toluene, read-out: Solubility) was over 22 mg/mL, the solubility ([6]; organic solvent or mixture, thermodynamic from solid, in Heptane and H2O, read-out: solubility (insoluble)) was under 1.3 mg/mL and the solubility ([6]; organic solvent or mixture, thermodynamic from solid, in MeOH, Acetic acid, Acetonitrile, Acetone, MIBK, EtOAc, IPAc, MTBE, THF, 2-MeTHF, 1,4-Dioxane, NMP, DMSO, DCM, Toluene and DMAc, read-out: solubility (soluble)) was over 18 mg/mL. For the same compound, the solubility ([6]; water, thermodynamic from solid, H2O, read-out: Solubility) was under 1 mg/mL.

With `Cc1cccc(F)c1C(=O)Nc1cnc(-c2cc3c(cc2Cl)OC(F)(F)O3)cn1` [Form B, N-(5-(6-chloro-2,2-difluorobenzo[d][1,3]dioxol-5-yl)pyrazin-2-yl)-2-fluoro-6-methylbenzamide] the “concentration in F57 vehicle” value ([1]; 2-8° C., 7 wk) was 1.80 mg/mL, the “concentration in F57 vehicle” value ([1]; 25° C., 1 wk) was 2.15 mg/mL and the “concentration in F57 vehicle” value ([1]; 25° C., 4 wk) was 2.04 mg/mL. The “concentration in F57 vehicle” value ([1]; 25° C., 1 day) was 1.30 mg/mL, the “concentration in F57 vehicle” value ([1]; 25° C., 2 day) was 1.73 mg/mL and the solubility ([1]; bottom-up, F57 vehicle, 2-8° C., in 7 weeks) was 1.8 mg/mL (≈ 4.27 mM). For the same compound, the “concentration in F57 vehicle” value ([4]; 1 wk) was 1.63 mg/mL, the “concentration in F57 vehicle” value ([4]; 4 wk) was 1.66 mg/mL and the “concentration in F57 vehicle” value ([4]; 1 day) was 0.75 mg/mL. The “concentration in F57 vehicle” value ([4]; 2 day) was 1.14 mg/mL, the “concentration in F57 vehicle” value ([5]; 1 wk) was 2.97 mg/mL and the “concentration in F57 vehicle” value ([5]; 4 wk) was 2.97 mg/mL. For the same compound, the “concentration in F57 vehicle” value ([5]; 1 day) was 3.00 mg/mL, the “concentration in F57 vehicle” value ([5]; 2 day) was 2.94 mg/mL and the “strength dissolved into F57 vehicle” value [5] was 3.00 mg/mL. For the same compound, the concentration on storage [5] was “remained the same”.
